Assay results: PubChem BioAssay (NCI)
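Cells were grown in 96-well plates and exposed to each compound for 48 hours at five concentrations; endpoints were interpolated linearly between bracketing concentrations, or set to the highest concentration if not reached. At the TGI there is no net growth.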

Tests used:
Assay in all cases: NCI tumour cell line growth inhibition, 48 h
[1] = test system: SF-268 CNS
[2] = test system: KM12 colon
[3] = test system: RPMI-8226 leukemia
[4] = test system: A549 NSCLC
[5] = test system: SNB-19 CNS
[6] = test system: MOLT-4 leukemia
[7] = test system: A498 renal
[8] = test system: PC-3 prostate
[9] = test system: SK-MEL-28 melanoma
[10] = test system: UACC-62 melanoma
[11] = test system: UO-31 renal
[12] = test system: SK-MEL-5 melanoma
[13] = test system: MDA-N
[14] = test system: OVCAR-8 ovarian
[15] = test system: 786-0 renal
[16] = test system: MALME-3M melanoma
[17] = test system: NCI-H460 lung
[18] = test system: M14 melanoma
[19] = test system: HS 578T breast
[20] = test system: IGROV1 ovarian
[21] = test system: SK-MEL-2 melanoma
[22] = test system: MCF7 breast
[23] = test system: CAKI-1 renal
[24] = test system: OVCAR-5 ovarian
[25] = test system: UACC-257 melanoma
[26] = test system: SK-OV-3 ovarian
[27] = test system: COLO 205 colon
[28] = test system: MDA-MB-435
[29] = test system: HOP-62 NSCLC
[30] = test system: RXF 393 renal
[31] = test system: NCI/ADR-RES ovarian
[32] = test system: T-47D breast
[33] = test system: MDA-MB-231 breast
[34] = test system: NCI-H23 lung
[35] = test system: HT29 colon
[36] = test system: BT-549 breast
[37] = test system: U251 CNS
[38] = test system: OVCAR-4 ovarian
[39] = test system: EKVX NSCLC
[40] = test system: NCI-H522 lung
[41] = test system: K-562 leukemia
[42] = test system: SF-295 CNS
[43] = test system: HCT-15 colon
[44] = test system: DU-145 prostate
[45] = test system: TK-10 renal
[46] = test system: OVCAR-3 ovarian
[47] = test system: ACHN renal
[48] = test system: HOP-92 NSCLC
[49] = test system: HCC-2998 colon
[50] = test system: SNB-75 CNS
[51] = test system: HCT-116 colon
[52] = test system: SW-620 colon
[53] = test system: CCRF-CEM leukemia
[54] = test system: LOX IMVI melanoma
[55] = test system: SF-539 CNS
[56] = test system: SN12C renal

Measured: TGI

C[C@@H]1OC(=O)C[C@H]2CC(=O)N(CCC3CN(C(=O)OCc4ccccc4)c4ccccc43)C[C@@H]21 (some centres not stated)
> 100 µM: [1] | [2] | [3] | [4] | [5] | [6] | [7] | [8] | [9] | [10] | [11] | [12] | [13] | [14] | [15] | [16] | [17] | [18] | [19] | [20] | [21] | [22] | [23] | [24] | [25] | [26] | [27] | [28] | [29] | [30] | [31] | [32] | [33] | [34] | [35] | [36] | [37] | [38] | [39] | [40] | [41] | [42] | [43] | [44] | [45] | [46] | [47] | [48] | [49] | [50] | [51] | [52]

O=C(Nc1ccc(N2C(=O)CSC2c2ccccc2O)cc1)c1ccc(N2C(=O)CSC2c2ccccc2O)cc1 (configuration not stated)
61.3 µM: [18]
> 100 µM: [1] | [2] | [3] | [4] | [5] | [6] | [8] | [9] | [11] | [12] | [13] | [14] | [15] | [53] | [16] | [17] | [54] | [19] | [20] | [21] | [22] | [23] | [24] | [25] | [27] | [28] | [29] | [30] | [31] | [32] | [33] | [34] | [35] | [36] | [37] | [38] | [39] | [40] | [41] | [42] | [43] | [44] | [45] | [46] | [47] | [55] | [49] | [51] | [56] | [52]
98.1 µM: [10]
82.4 µM: [50]
86.4 µM: [48]
62.3 µM: [26]
